Like-named read-outs stand apart in the source and are kept apart here.
How the values were obtained:
[1] = given by mouth over a time frame of up to 4 weeks; cited from earlier work
plasma proteins = details: cited from earlier work
[2] = Pharmacokinetic study following repeated s.c. administration of 1-MT; type: in vivo, domestic pigs (Sus scrofa domestica)
[3] = mice, within 48 h post dose; cited from earlier work
[4] = repeated oral administration at a saturating dose, rats and dogs; cited from earlier work
[5] = Pharmacokinetic study following a single s.c. administration of 1-MT; type: in vivo, domestic pigs (Sus scrofa domestica); details: for Cmax: means ± standard deviation
[6] = type: in vivo, domestic pigs (Sus scrofa domestica)
[7] = 12 h after the final of five daily s.c. injections, n=6
[8] = German Landrace, pig, plasma, sc, 1 g
[9] = one-compartment model fitted by numerical simulation to single-dose plasma data
[10] = single s.c. administration of 1 g 1-MT, n=3
[11] = endogenous TRP, 12 h after the final s.c. injection of 1-MT
[12] = endogenous TRP, all four animals

For `Cn1cc(C[C@H](N)C(=O)O)c2ccccc21` [1-MT, 1-methyl-L-tryptophan], the maximum tolerated dose [1] is given as 1.6 g/day, the “bound to plasma proteins” value (plasma proteins) is given as “less than 15%” and the “steady state of plasma trough concentrations” value ([2]; 1 g 1-MT s.c. daily for five days) is given as “steady state conditions of trough values were reached after two subcutaneous administrations”. For the same compound, the “1-MT concentrations in peripheral tissues” value ([2]; 12 h after the final of five daily s.c. injections) was 48–152 nmol/g wet tissue weight, the “1-MT concentration in kidney and liver” value [2, 7] was “greater than 100 nmol/g wet tissue weight” and the “1-MT concentration in the different brain areas” value [2, 7] was “lower than 20 nmol/g wet tissue weight”. For the same compound, the concentration at 12 h [2, 8] was 38 µM, the “share of 1-MT accumulated in organs derived from contamination with blood” value ([2]; estimated from plasma 1-MT and organ blood volumes (32-408 µl/g)) was “less than 5%” and the excreted via feces [3] was 13%. For the same compound, the excreted via urine [3] was 35%, the tolerability [4] was “well tolerated, with no toxic effects” and the AUC(0-t) [5, 8] was 960 ± 346 µM·h. For the same compound, the Tmax [5, 8] was 12 h, the concentration at 24 h [5, 8] was 21.1 ± 5.3 µM and the Cmax ([5]; German Landrace, pig, plasma, sc, 1 g, Cmax, maximum concentration in pigs plasma, single s.c. administration of 1 g 1-MT, n=3) was 29.1 ± 8 µM. It also gave a half-life ([5]; German Landrace, pig, plasma, sc, 1 g, T1/2, half-life, single s.c. administration of 1 g 1-MT, n=3) of 10.9 ± 2 h, a kabsorption [5, 9] of 0.08 min⁻¹ and a kelimination [5, 9] of 0.001 min⁻¹. The krelease [5, 9] was 0.0018 min⁻¹, the Cmax ([5]; read-out: Cmax, maximum concentration in pigs plasma, single s.c. administration of 1 g 1-MT, n=3) was 29.1 ± 7.97 µM and the “T1/2, half-life” value [5, 10] was 10.93 ± 2.03 h. For the same compound, the “k, first-order kinetic rate constant” value [5, 10] was 0.065 ± 0.011 h⁻¹, the daily feed uptake ([6]; five daily s.c. administrations of 1 g 1-MT, not different from MYR (P = 0.97)) was 0.66 ± 0.02 kg and the fever response ([6]; five-day period of 1-MT administration) was “no fever response”. For the same compound, the “health status after a single s.c. injection” value ([6]; single s.c. 1 g 1-MT, visual inspection twice daily) was “No impairment of the health status could be observed”.

With `N[C@@H](Cc1c[nH]c2ccccc12)C(=O)O` [TRP, tryptophan] the “TRP concentration in kidney, liver, adrenal gland, spleen, and thyroid gland” value [2, 11] was “greater than 40 nmol/g wet tissue weight”, the “TRP concentration in the other tissues” value [2, 11] was “lower than 30 nmol/g wet tissue” and the “maximum TRP concentration in plasma over the 7-day period” value [5, 12] was 37.7 µM. For the same compound, the “minimum TRP concentration in plasma over the 7-day period” value [5, 12] was 13.1 µM and the “average TRP concentration in plasma over the entire 7-day period” value ([5]; endogenous TRP, all four animals, after single s.c. 1-MT or MYR) was 22.8 ± 5.1 µM.
